{"source": "patent US20250222011A1", "about": "“DRUG TARGET FOR INHIBITING TUMOR, USE, AND ORAL DRUG” (CHI BIOTECH CO., LTD., priority 2024, published 2025)", "key": {"phosphorylated EIF2S1": {"system": "phosphorylated EIF2S1", "assay": "Western blotting detection of EIF2A phosphorylation", "assay_type": "cell-based", "conditions": "1 mM of ATCA for 48 h, FIG. 3", "method": "Western Blotting method: the sample and molecular weight standard of pre-stained protein were loaded onto an SDS-PAGE gel (10 cm×10 cm) to allow electrophoresis at 100 V for 40 min. After treating for 1 h at 100 V, 230 mA, the protein in SDS-PAGE was transferred to a nitrocellulose membrane. After transfer, the nitrocellulose membrane was washed with 25 mL of TBS for 5 min at room temperature. The nitrocellulose membrane was placed in 25 mL of blocking buffer (TBST, 5% skim milk) and incubated at room temperature for 1 h. The membrane was washed three times with 15 mL TBST, 5 min each time. The membrane and phosphorylated EIF2S1 primary antibody (diluted at 1:1500) were placed in 10 mL of a primary antibody dilution buffer and incubated overnight at 4° C. with gentle shaking at certain intervals. The membrane was washed three times with 15 mL TBST, 5 min each time. A rabbit secondary antibody was prepared with 5% skim milk at a ratio of 1:2000 and incubated at room temperature for 1.5 h. The membrane was washed three times with 15 mL TBST, 5 min each time. The membrane was incubated with 10 mL of LumiGLO® (0.5 mL 20× LumiGLO®, 0.5 mL 20× peroxide, and 9.0 mL purified water) at room temperature for 1 min with gentle agitation at certain intervals. The excess developer on the membrane was drained (no drying), wrapped in plastic film, and then developed with a BIO-RAD developer."}, "SOX2": {"system": "SOX2", "assay": "Western blotting of SOX2 expression after ATCA treatment", "assay_type": "cell-based", "conditions": "FIG. 4"}, "polyribosomes": {"system": "polyribosomes", "assay": "Polysome profiling (cell translation initiation efficiency)", "assay_type": "cell-based", "conditions": "1 mg/mL, FIG. 5", "method": "Polysome profiling: cells were plated in a 75 T flask with 2 million cells per flask and allowed to adhere for 24 h, and the ACTA was added to the experimental group to make a concentration of the working solution at 1 mg/mL. The control group was replaced with a new medium. Samples were collected after 24 h and 48 h of ATCA treatment. The medium was aspirated, the samples were washed twice with PBS, and 2 mL of Lysis Buffer (RB Buffer, 1% Ttiton X-100, and 10 μg/μL cycloheximide) was added to allow lysis for 30 min on ice, and a resulting lysate was pipetted into an RNase-free EP tube. […] After centrifugation for 4 h and 10 min at 4° C. and 25,400 rpm, high-performance liquid chromatography (HPLC) was conducted to allow relative quantitative analysis of polyribosomes, monoribosomes, and large and small subunits of ribosomes."}, "H1299 cells": {"system": "H1299 cells", "assay": "Transcriptome sequencing with KEGG pathway enrichment of down-regulated genes", "assay_type": "cell-based, human", "conditions": "1 mg/mL ATCA, 48 h, FIG. 7", "method": "1 mg/mL ATCA was added to the culture medium of a T75 cell culture flask filled with three million of H1299 cells as a treatment group, and an equal volume of PBS was added as a control group. After ATCA treatment for 48 h, the cultured supernatant was discarded, and the cells were placed on ice, washed twice with pre-cooled PBS. The PBS was discarded, 5 mL of pre-cooled Trizol (total RNA extraction reagent) was added, mixed by shaking thoroughly. […]"}, "cancer cells": {"system": "cancer cells", "assay": "LDH assay of cytotoxicity", "assay_type": "cell-based", "conditions": "0.5 mg/mL", "excerpt": "(§1) In addition, an LDH assay was adopted to determine the cytotoxicity of ATCA and detect the cytotoxicity of the drug."}, "normal cells (HBE)": {"system": "normal cells (HBE)", "assay": "LDH assay of cytotoxicity", "assay_type": "cell-based", "conditions": "0.5 mg/mL", "excerpt": "as §1"}, "ovarian cancer cells": {"system": "ovarian cancer cells", "assay": "Apoptosis of ovarian cancer cells (other experiments)", "assay_type": "cell-based"}, "liver cancer cells": {"system": "liver cancer cells", "assay": "Proliferation of liver cancer cells (other experiments)", "assay_type": "cell-based"}}}
{"smiles": "O=C(O)C1=CC(=C(c2ccc(O)c(C(=O)O)c2)c2ccc(O)c(C(=O)O)c2)C=CC1=O", "note": "[ATCA, aurintricarboxylic acid]", "values": [{"measurement": "EIF2S1 phosphorylation abundance", "setting": "phosphorylated EIF2S1", "value": "did not affect its phosphorylation abundance"}, {"measurement": "SOX2 expression", "setting": "SOX2", "value": "downregulation"}, {"measurement": "polysome distribution curve", "setting": "polyribosomes; 24 h after adding the drug", "value": "did not change much"}, {"measurement": "polyribosome fraction", "setting": "polyribosomes; 48 h after adding the drug", "value": "significantly reduced"}, {"measurement": "translation elongation", "setting": "polyribosomes", "value": "did not affect translation elongation"}, {"measurement": "further significantly down-regulated pathways (KEGG enrichment)", "setting": "H1299 cells", "value": "platinum drug-resistance, TGF-beta signaling pathway, signaling pathways regulating pluripotency of stem cells, and FoxO signaling pathway"}, {"measurement": "most significantly down-regulated pathway (KEGG enrichment)", "setting": "H1299 cells", "value": "cell cycle"}, {"measurement": "cytotoxicity to cancer cells (LDH)", "setting": "cancer cells", "value": "did not cause obvious cytotoxicity"}, {"measurement": "cytotoxicity to normal cells (LDH)", "setting": "normal cells (HBE)", "value": "did not cause obvious cytotoxicity"}, {"measurement": "apoptosis of ovarian cancer cells", "setting": "ovarian cancer cells", "value": "induce apoptosis"}, {"measurement": "proliferation of liver cancer cells", "setting": "liver cancer cells", "value": "inhibit the proliferation"}]}
